The values below come from article PMC6747318, “Mutual Enhancement of Opioid and Adrenergic Receptors by Combinations of Opioids and Adrenergic Ligands Is Reflected in Molecular Complementarity of Ligands: Drug Development Possibilities” (International Journal of Molecular Sciences, 2019).

Several values for one entry are separate records, joined by “and”; a condition that tells them apart may be missing. Equal values may be shown once. Where a name gives a salt, the structure may show the parent alone.

In the first assay the target is T1, dopamine D1 receptor (D1DR) 170–188 (Homo sapiens, UniProt P21728).
T1 construct: D1DR 170–188
As to the kind of experiment: UV spectroscopy binding to receptor peptide D1DR 170–188.
Conditions: not given
As to `CN1CC[C@]23c4c5ccc(O)c4O[C@H]2[C@@H](O)C=C[C@H]3[C@H]1C5` [Morphine, morphine sulfate], the Kd (usually the concentration at which binding is half-saturated) was 310 µM.

The molecule `C=CCN1CC[C@]23c4c5ccc(O)c4O[C@H]2C(=O)CC[C@@]3(O)[C@H]1C5` [Naloxone, naloxone] came in with an equilibrium dissociation constant (Kd) of 150 µM.

Another assay has as its target T2, beta 2 adrenergic receptor (B2AR) 175–188 (Homo sapiens, UniProt P07550).
T2 construct: B2AR 175–188
As to the kind of experiment: UV spectroscopy binding to receptor peptide B2AR 175–188. The note with it: single binding constant; read-out: Kd @ 200 nm, B2AR 175–188.
Method: (§1) After the solutions were made, a 96-well quartz crystal plate was prepared to be run through the spectrophotometer at room temperature (ca. 24 °C). […] The absorbance of each receptor peptide without the presence of the adrenergic compound was measured as well. The absorbance of each well was measured at every 10 nm increment from 190 nm to 260 nm. The maximum absorbance that can be measured was set to four. Each well had 200 μL of solution, so if the absorbance of one component was being measured, it was diluted by half with a phosphate buffer.
(§2) If the measured absorbance is different than the additive absorbance of each compound, then that indicates some sort of molecular interaction. The binding can be quantified by graphing the difference in absorbance against the concentration of the compound varied to provide a binding curve. The data are analyzed by finding the additive absorbance and plotting the difference between this absorbance and the actual absorbance against the concentration of the adrenergic compound. The absorbance for the phosphate buffer is subtracted for each well before any calculations are done. […] The binding constants were estimated from the half-saturation point.
For `CSCC[C@H](NC(=O)[C@H](Cc1ccccc1)NC(=O)CNC(=O)CNC(=O)[C@@H](N)Cc1ccc(O)cc1)C(=O)O` [Methionine-Enkephalin, methionine-enkephalin], the dissociation constant Kd amounted to 700 µM.

The next assay concerns the target MuOPR 121–131 (Homo sapiens, UniProt P35372).
Assay: not given
Conditions: not given
As for `CC(N)Cc1ccccc1` (centres unmarked) [Amphetamine], the “binding to transmembrane peptide Mu 121” value is given as “No binding was observed”.

A further assay concerns the target T3, insulin receptor (INSR) 157–166 (Homo sapiens, UniProt P06213).
T3 construct: INSR 157–166
Put plainly: UV spectroscopy binding to control peptide INSR 157–166. The note with it: control sequence; read-out: Kd @ 200 nm, INSR 157–166.
Method: as §1, §2
For `CSCC[C@H](NC(=O)[C@H](Cc1ccccc1)NC(=O)CNC(=O)CNC(=O)[C@@H](N)Cc1ccc(O)cc1)C(=O)O` [Methionine-Enkephalin, methionine-enkephalin], the Kd was 100 µM.

The target in another assay is T4, insulin receptor (INSR) 281–299 (Homo sapiens, UniProt P06213).
T4 construct: INSR 281–299
Put plainly: UV spectroscopy binding to control peptide INSR 281–299. The settings on record: control sequence; read-out: Kd @ 200 nm, INSR 281–299.
Method: as §1, §2
As to `CSCC[C@H](NC(=O)[C@H](Cc1ccccc1)NC(=O)CNC(=O)CNC(=O)[C@@H](N)Cc1ccc(O)cc1)C(=O)O` [Methionine-Enkephalin, methionine-enkephalin], the Kd is more than 1000 µM.

`C=CCN1CC[C@]23c4c5ccc(O)c4O[C@H]2C(=O)CC[C@@]3(O)[C@H]1C5` [Naloxone, naloxone]: the dissociation constant Kd was more than 1000 µM.

In a further assay the target is methionine-enkephalin (Homo sapiens, UniProt P01210). Put plainly: UV spectroscopy binding between compounds: binding to methionine-enkephalin. Also noted: M-Enk = methionine-enkephalin; purchased Sigma-Aldrich. The settings on record: Kd @ 200 nm, binding to M-Enk, UV spectroscopy, pH 7.4 sodium phosphate buffer; single binding constant.
In the case of `CC(N)Cc1ccccc1` (centres unmarked) [Amphetamine], binding was put at a Kd of 80 µM.

The same assay, now with this note: Kd @ 200 nm, binding to M-Enk, high affinity binding, double curve, first value.
Regarding `CC(C)NCC(O)COc1cccc2ccccc12` (centres unmarked) [Propranolol], the Kd is ~3 µM and 3 µM.

The same assay, now with this note: read-out: Kd @ 200 nm, binding to M-Enk, low affinity binding; double curve, second value.
As to `CC(C)NCC(O)COc1cccc2ccccc12` (centres unmarked) [Propranolol], the dissociation constant (Kd) worked out at 35 µM.

The same assay, now with this note: read-out: Kd @ 200 nm, binding to M-Enk, low affinity binding; double curve, second value; listed as propranolol.
Take `CC(C)NCC(O)COc1cccc2ccccc12` (centres unmarked) [Propranolol]: the dissociation constant (Kd) was approximately 35 µM.

In another assay the target is T5, beta 2 adrenergic receptor (B2AR) 97–103 (Homo sapiens, UniProt P07550).
T5 construct: B2AR 97–103
Put plainly: UV spectroscopy binding to receptor peptide B2AR 97–103. The settings on record: read-out: Kd @ 200 nm, B2AR 97–103.
Method: as §1, §2
On to `CSCC[C@H](NC(=O)[C@H](Cc1ccccc1)NC(=O)CNC(=O)CNC(=O)[C@@H](N)Cc1ccc(O)cc1)C(=O)O` [Methionine-Enkephalin, methionine-enkephalin], for which the dissociation constant Kd was 130 µM.

The target of a further assay is methionine-enkephalin (Homo sapiens), P01210. As to the kind of experiment: UV spectroscopy. The note with it: modification not given.
Chain of methionine-enkephalin (Homo sapiens), P01210 (P01210 whole entry, looked up): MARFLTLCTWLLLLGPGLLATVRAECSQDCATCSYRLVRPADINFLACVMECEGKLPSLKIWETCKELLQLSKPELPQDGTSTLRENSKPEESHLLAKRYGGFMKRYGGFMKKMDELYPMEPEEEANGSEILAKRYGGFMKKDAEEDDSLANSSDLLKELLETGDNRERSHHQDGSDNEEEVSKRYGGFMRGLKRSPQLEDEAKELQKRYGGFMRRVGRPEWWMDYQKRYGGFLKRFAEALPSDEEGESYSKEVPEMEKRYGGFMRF
Turning to FWPFGSFCNI [dopamine D1 receptor 89-98, P21728], the dissociation constant (Kd) came out at 80 µM.

NLALADALATST [mu opioid receptor 111-122, P35372] gave a Kd of 80 µM.

As to VNFSFCQDLHHKCKNSRRQ [insulin receptor 281-299, P06213], the Kd was more than 1000 µM.

Take KYRQGSIDCTLTFSHP [mu opioid receptor 211-226, P35372]: the Kd is 1 µM.

In the case of RATHQEAINCYANE [beta 2 adrenergic receptor 175-188, P07550], the dissociation constant Kd amounted to 700 µM.

GAVVMPMNILY [histamine type 1 receptor 77-87, P35367] registered a dissociation constant Kd of 70 µM.

In the case of TIDWSRILDS [insulin receptor 157-166, P06213], the equilibrium dissociation constant (Kd) came out at 100 µM.

Take STLPFQSVNYL [mu opioid receptor 121-131, P35372]: the Kd is 90 µM.
